Results: patent publication EP3225590A1 (Université de Strasbourg, priority 2016, dated 2017)
pKd: −log10 of the molar value. Several values for one entry are separate records, joined by “and”; a condition that tells them apart may be missing. Equal entries are not always repeated. Where two headings read alike, the source gives them in different places.

What was measured:
ANR-L1 = test: Fluorescence titration of ANR-L1 suspension with analyte, 1:1 single-site binding fit; conditions: for factor weaker binding in the presence of 50 mM Trp than in the absence: ANR-L1, 50 mM Trp as potential competitor
ANR-Y1 = test: Fluorescence titration of ANR-Y1 suspension with analyte, 1:1 single-site binding fit
ANR-Y2 = test: Fluorescence titration of ANR-Y2 suspension with analyte, 1:1 single-site binding fit
Description: (§1) This fitting procedure was used in favour of a Stern-Volmer analysis, because linearized binding plots are known to produce errors in Kd.
(§2) Herein, FA is the intensity at a given analyte concentration and F0 is the emission intensity before analyte addition. ΔF is a measure of the relative emission increase or decrease caused by the analyte. For fully non emissive AB complexes, i.e. when the analyte A is an efficient quencher, ΔF reaches -1. The quantity cA denotes the concentration of the analyte A and cB denotes the concentration of the "binding stations" in the ANR.
(§3) The values Kd and ΔF result from the non-least square fit given the input FA, F0, cA and cB.
(§4) The concentration cA of the analyte follows directly from the concentration of the stock solution and the added volume to the cuvette with the suspension of the ANR. The concentration cB of the single binding sites per ANR suspension is a priori not known. […] This so obtained value cB was then used as a constant for the fitting of the binding isotherms of the weaker binding analytes. […] In addition, it is reassuring to note that the value of the affinity constant Kd is rather insensitive to the concentration cB.

CB8-D1 = CB8-D1 (cucurbit[8]uril and dye D1), in water, read-out: Kd (affinity), cited from earlier work
ANR-L3 = test: Fluorescence titration of ANR-L3 suspension with analyte, 1:1 single-site binding fit
Description: as §1, §2, §3, §4

ANR-L4 = test: Fluorescence titration of ANR-L4 suspension with analyte, 1:1 single-site binding fit
Description: as §1, §2, §3, §4

ANR-L2 = test: Fluorescence titration of ANR-L2 suspension with analyte, 1:1 single-site binding fit
Description: as §1, §2, §3, §4

ANRs = conditions: 100 µM concentration; ANR-Y2, ANR-L3 and ANR-L5
[1] = cucurbit[7]uril, ref. [9]; read-out: Kd(5-HT); cited from earlier work
ANR1 = test: Binding of tryptophan to ANR1 at acidic pH (data not shown); conditions: pH <3
[2] = 10 mM HEPES buffer (pH 7.3), ANR 250 µg/mL, >> = less than 10% change in emission intensity at >50 molar excess of analyte, error less than ±20%, read-out: Kd(ANR-L1)
[3] = 10 mM HEPES buffer (pH 7.3), ANR 250 µg/mL, >> = less than 10% change in emission intensity at >50 molar excess of analyte, error less than ±20%, read-out: Kd(ANR-Y1)
[4] = read-out: single site dissociation constant Kd, ANR-Y2 250 µg/mL, 10 mM HEPES buffer (pH 7.3)
[5] = ANR-Y1 250 µg/mL, 10 mM HEPES buffer (pH 7.3), read-out: single site dissociation constant Kd
[6] = ANR-L1 250 µg/mL, 10 mM HEPES buffer (pH 7.3) with 50 mM tryptophan added, read-out: Kd
[7] = stated for the larger-cavity zeolite-Y-based receptors, printed 'with ANR-L2'
[8] = ANR-L3 250 µg/mL in 10 mM HEPES buffer, pH 7.3 (aqueous buffer)

pKd (ANR-L1; [2])	pKd (ANR-Y1; [3])	SMILES	also measured
< 3.00	< 3.00	N[C@@H](Cc1c[nH]c2ccc(O)cc12)C(=O)O [5-HTP]	–
< 3.00	< 3.00	N[C@H](CO)C(=O)O [D-serine]	–
< 3.00	< 3.00	N[C@@H](Cc1ccc(O)c(O)c1)C(=O)O [L-DOPA]	–
4.49	6.96	NC(=O)[C@@H](N)Cc1c[nH]c2ccccc12 [TrpNH2]	pKd (ANR-Y2; [4]): 5.57; pKd (CB8-D1; listed as TrpNF2): 5.66; pKd (CB8-D1): ~5.66; pKd (ANR-Y1; [5]): ~6.96
< 3.00	< 3.00	Nc1ncnc2c1ncn2[C@@H]1O[C@H](CO)[C@@H](O)[C@H]1O [adenosine]	–
< 3.00	< 3.00	NCCCCCN [cadaverine]	–
< 3.00	< 3.00	Oc1ccccc1O [catechol]	–
4.80	5.47	NCCc1ccc(O)c(O)c1 [dopamine]	pKd (ANR-L3; read-out: approximated dissociation constant (Kd = 1/slope), Stern-Volmer plot, ANR-L3): 4.82; pKd (ANR-L4; read-out: approximated dissociation constant (Kd = 1/slope), Stern-Volmer plot, ANR-L4): 5.15; pKd (ANR-Y2; read-out: approximated dissociation constant (Kd = 1/slope), Stern-Volmer plot, ANR-Y2): 5.00; pKd (ANR-Y2; [4]): 5.02; pKd (ANR-L1; [6]): 4.32; factor weaker binding in the presence of 50 mM Trp than in the absence (ANR-L1): ~ 3; pKd (ANR-Y1; read-out: approximated dissociation constant (Kd = 1/slope), Stern-Volmer plot, ANR-Y1): 5.40
–	–	CNC[C@H](O)c1ccc(O)c(O)c1 [epinephrine]	pKd (ANR-L1; pH 7.3, read-out: Kd(ANR-L1)): < 3.22; pKd (ANR-Y1; pH 7.3, read-out: Kd(ANR-Y1)): 4.59; pKd (ANR-L2; ANR-L2, zeolite-L based): 3.62; pKd (ANR-L2; [7]): 4.41
< 3.00	< 3.00	NCCO [ethanolamine]	–
< 3.00	< 3.00	N[C@@H](CCC(=O)O)C(=O)O [glutamate]	–
< 3.00	< 3.00	NCC(=O)O [glycine (Gly), glycine]	–
–	–	NCCc1c[nH]cn1 [histamine]	pKd (ANR-L3; [8]): 3.44
< 3.00	< 3.00	N[C@@H](Cc1c[nH]cn1)C(=O)O [histidine]	–
< 3.00	< 3.00	O=C(O)Cc1c[nH]c2ccccc12 [indole-3-acetic acid]	–
< 3.00	< 3.00	COc1ccc2[nH]cc(CCNC(C)=O)c2c1 [melatonin]	–
–	–	CN1CCCC1c1cccnc1 (stereo not drawn) [nicotine]	effect on emission intensity (ANRs): no appreciable effect
4.51	4.96	NC[C@H](O)c1ccc(O)c(O)c1 [norepinephrine]	pKd (ANR-L2; ANR-L2, zeolite-L based): 4.89; pKd (ANR-L2; [7]): 4.59
4.40	4.96	NCC(O)c1ccc(O)cc1 (stereo not drawn) [octopamine]	–
< 3.00	< 3.00	CC(=O)Nc1ccc(O)cc1 [paracetamol]	–
–	–	NCCc1ccccc1 [phenethylamine]	pKd (ANR-L3; [8]): 3.72; residual emission int. (ANR-L4; ANR-L4, at 25 µM of analyte): 75%; pKd (ANR-L4; ANR-L4, partial emission quenching): 4.72
< 3.00	< 3.00	N[C@@H](Cc1ccccc1)C(=O)O [phenylalanine]	–
< 3.22	4.26	CNC[C@H](O)c1cccc(O)c1 [phenylephrine]	–
< 3.00	< 3.00	CC(=O)CCc1ccc(O)cc1 [raspberry ketone]	–
5.48	7.15	NCCc1c[nH]c2ccc(O)cc12 [serotonin (5-HT), serotonin]	pKd (ANR-L1; [6]): 4.85; pKd (ANR-L1; ANR-L1 250 µg/mL, ethanolic media (ethanol with 0.2 mM acetic acid), read-out: single site dissociation constant Kd): ~4.60; pKd (ANR-L1; ANR-L1 250 µg/mL, water and aqueous buffer, read-out: single site dissociation constant Kd): ~5.52; factor weaker binding in the presence of 50 mM Trp than in the absence (ANR-L1): ~ 4; pKd (ANR-L1; read-out: approximated dissociation constant (Kd = 1/slope), Stern-Volmer plot, ANR-L1): 5.40; pKd (ANR-Y1; [5]): 7.15 and ~7.15; pKd [1]: ~4.82; pKd (ANR-L2; read-out: approximated dissociation constant (Kd = 1/slope), Stern-Volmer plot, ANR-L2): 5.70
4.57	5.24	NCCc1ccc(O)cc1 [tyramine]	quenching of the emission of ANR-L3 (ANR-L3; titration curve shows saturation behaviour): 30%
< 3.00	< 3.00	N[C@@H](Cc1ccc(O)cc1)C(=O)O [tyrosine]	–

SMILES	pKd (ANR-L1; [2])	pKd (ANR-Y1; [3])	also measured
CC(=O)OCC[N+](C)(C)C [acetylcholin]	< 3.00	< 3.00	–
c1ccc2[nH]ccc2c1 [indole]	< 3.00	< 3.00	–
CCC(=O)Nc1ccc(Cl)c(Cl)c1 [propanil]	< 3.00	< 3.00	–
NCCc1c[nH]c2ccccc12 [tryptamine]	5.00	6.82	pKd (ANR-L3; [8]): ~5.05; pKd (ANR-L3; ANR-L3, neat chloroform (absence of acetic acid)): 4.82; pKd (ANR-L3; read-out: single site dissociation constant Kd, ANR-L3 250 µg/mL, chloroform:acetic acid (99:1)): 5.40; pKd (ANR-L1; [6]): 4.57; factor weaker binding in the presence of 50 mM Trp than in the absence (ANR-L1): ~ 3; pKd (ANR-L1; read-out: single site dissociation constant Kd): 5.52
N[C@@H](Cc1c[nH]c2ccccc12)C(=O)O [tryptophan (Trp), tryptophan]	< 3.00	< 3.00	pKd (CB8-D1): ~5.20; binding to ANR1 (ANR1): binding; binding to ANR1 (ANR1; listed as trytophane): bind
